In patent US20260048022A1, “ENDOTHELIAL DAMAGE AND NANOPARTICLE TARGETING: COMPOSITIONS, PROCESSES, USES” (Nanoprobes, Inc., priority 2022, published 2026):
Read-outs that look alike come from different tables or passages of the source.

What was measured:
[1] = Payload retention / incorporation in protein nanoparticles; assay type: physicochemical; conditions: PBS washing
Procedure: (§1) 0.2 mg of acridine yellow G or 0.2 mg of propidium iodide were dissolved in DMSO by heating twice at 80° C. for 2 min. 15 mg albumin was dissolved in 0.4 mL of PBS. While sonicating the albumin solution in an ice bath, the acridine or propidium solutions were slowly over about 10-20 sec injected at the sonicator tip. Sonication was continued for another minute. Clear colored solutions were obtained. Both were filtered through a 0.45 μm filter, all passing through. However, if albumin was not used, the solution containing acridine all was retained by the filter, whereas the propidium solution passed through. Both were purified with 50 kD Amicon centrifugal filters with PBS washing.
20 mg of albumin was dissolved in 0.4 mL water and mixed with 0.5 mg of Dox making a clear colored solution. Under sonication and in an ice-water bath, 80 ul of 0.1 M NaOH was slowly injected near the sonicator tip. Next, 10 ul of 8% glutaraldehyde (in water) was added with an additional 5 minutes of sonication producing a clear solution. After 30 min, 30 ul of a 3 M solution of ethanolamine hydrochloride was added. After 30 min, the construct was purified on a 50 kDa centrifugal filter. […] After resuspension of the retentate in PBS the size of the nanoparticles was measured to be 117 nm by dynamic light scattering. […]

DNA = assay: Nanoparticle targeting of DNA; assay type: binding; conditions: DNA binder incorporated into nanoparticles
Procedure: as §1
20 mg of albumin was dissolved in 0.4 mL water and mixed with 0.5 mg of Dox making a clear colored solution. Under sonication and in an ice-water bath, 80 ul of 0.1 M NaOH was slowly injected near the sonicator tip. Next, 10 ul of 8% glutaraldehyde (in water) was added with an additional 5 minutes of sonication producing a clear solution. After 30 min, 30 ul of a 3 M solution of ethanolamine hydrochloride was added. After 30 min, the construct was purified on a 50 kDa centrifugal filter. […] After resuspension of the retentate in PBS the size of the nanoparticles was measured to be 117 nm by dynamic light scattering.

tumors [2] = conditions: Pedley et al, 1996; cited from earlier work
[3] = Phase III trials; cited from earlier work
tumors [4] = assay: Tumor treatment, variation of fibrinogen, drug and VDA amounts; assay type: in vivo
Procedure: One of the components, fibrinogen, was varied from 10 to 150 mg/kg.
In a preferred embodiment, 60 mg PTX/kg and 350 mg fibrinogen/kg are formed into nanoparticles 110-180 nm or 110 to 350 nm in size. Another discovery process requiring extensive experimentation was to find the type of fibrinogen that worked well. […] Various forms and fractions were tested to find a preferable one for tumor targeting.

[5] = free drug, literature, cited from earlier work
[6] = tested on: advanced non-squamous non-small-cell lung cancer; conditions: Phase II, with carboplatin, paclitaxel, and bevacizumab; cited from earlier work

CC[N+](C)(CC)CCC[n+]1c(-c2ccccc2)c2cc(N)ccc2c2ccc(N)cc21 [propidium, propidium iodide]
retention with albumin on 50 kD Amicon centrifugal filters (stable complex) [1]: came through in the filtrate | targeting of necroses / free DNA when included in a nanoparticle (DNA): failed

Cc1cc2cc3cc(C)c(N)cc3nc2cc1N [acridine yellow G]
retention with albumin on 50 kD Amicon centrifugal filters (stable complex) [1]: remained in the retentate | targeting of necroses / free DNA when included in a nanoparticle (DNA): found to target the nanoparticles to free DNA

Cc1ccc2c(=O)c3cccc(CC(=O)O)c3oc2c1C [DMXAA]
ineffective dose (current teaching) (tumors [2]): less than 20 mg/kg | useful dose (current teaching) (tumors [2]): 27.5 mg/kg | patient survival [3]: lack of patient gain in survival | dose leading to excessive toxicity (mouse, in vivo): > 20 mg/kg | dose close to optimal (tumors [4]; DMXAA as vascular disrupting agent with nanoparticles): ~18 mg/kg

CC(=O)O[C@H]1C(=O)[C@@]2(C)[C@H]([C@H](OC(=O)c3ccccc3)[C@]3(O)C[C@H](OC(=O)[C@H](O)[C@@H](NC(=O)c4ccccc4)c4ccccc4)C(C)=C1C3(C)C)[C@]1(OC(C)=O)CO[C@@H]1C[C@@H]2O [paclitaxel]
maximum tolerated dose (reported / published) [5]: 10 mg/kg | maximum tolerated dose (reported / published) ([5]; listed as PTX): 25 mg/kg | tolerability (mouse, in vivo, 90 mg/kg): well-tolerated | multiple of the maximum tolerated dose that can be safely administered (using the disclosed method): ~4 times | treatment result (tumors [4]; 60-90 mg PTX/kg in the nanoparticle): excellent results

COc1ccc(/C=C\c2cc(OC)c(OC)c(OC)c2)cc1OP(=O)(O)O.NC(CO)(CO)CO [CA4P, fosbretabulin tromethamine]
patient benefit [6]: little patient benefit
